Results taken from PubChem BioAssay (NCI).
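GI50 = concentration required for 50% inhibition of growth. The concentration for full growth arrest is given as TGI.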

How the values were obtained:
Assay in all cases: growth of human tumour cells (NCI), 384-well format
ACHN renal = tested on: ACHN renal
HCT-15 colon = tested on: HCT-15 colon
RPMI-8226 leukemia = tested on: RPMI-8226 leukemia
UO-31 renal = tested on: UO-31 renal
KM12 colon = tested on: KM12 colon
DU-145 prostate = tested on: DU-145 prostate
OVCAR-8 ovarian = tested on: OVCAR-8 ovarian
HCT-116 colon = tested on: HCT-116 colon
MALME-3M melanoma = tested on: MALME-3M melanoma
HL-60(TB) leukemia = tested on: HL-60(TB) leukemia
A498 renal = tested on: A498 renal
UACC-257 melanoma = tested on: UACC-257 melanoma
SN12C renal = tested on: SN12C renal
SF-539 CNS = tested on: SF-539 CNS
LOX IMVI melanoma = tested on: LOX IMVI melanoma
SK-MEL-5 melanoma = tested on: SK-MEL-5 melanoma
HS 578T breast = tested on: HS 578T breast
NCI-H226 lung = tested on: NCI-H226 lung
NCI/ADR-RES ovarian = tested on: NCI/ADR-RES ovarian
HCC-2998 colon = tested on: HCC-2998 colon
M14 melanoma = tested on: M14 melanoma
OVCAR-3 ovarian = tested on: OVCAR-3 ovarian
OVCAR-4 ovarian = tested on: OVCAR-4 ovarian
NCI-H522 lung = tested on: NCI-H522 lung
NCI-H23 lung = tested on: NCI-H23 lung
MDA-MB-231 breast = tested on: MDA-MB-231 breast
SK-MEL-2 melanoma = tested on: SK-MEL-2 melanoma
NCI-H322M lung = tested on: NCI-H322M lung
SF-295 CNS = tested on: SF-295 CNS
NCI-H460 NSCLC = tested on: NCI-H460 NSCLC
UACC-62 melanoma = tested on: UACC-62 melanoma
SK-OV-3 ovarian = tested on: SK-OV-3 ovarian
A549 NSCLC = tested on: A549 NSCLC
HOP-92 NSCLC = tested on: HOP-92 NSCLC
CCRF-CEM leukemia = tested on: CCRF-CEM leukemia
SNB-75 CNS = tested on: SNB-75 CNS
EKVX NSCLC = tested on: EKVX NSCLC
HT29 colon = tested on: HT29 colon
U251 glioblastoma = tested on: U251 glioblastoma
T-47D breast = tested on: T-47D breast
MDA-MB-468 breast = tested on: MDA-MB-468 breast
OVCAR-5 ovarian = tested on: OVCAR-5 ovarian
SR leukemia = tested on: SR leukemia
HOP-62 NSCLC = tested on: HOP-62 NSCLC
COLO 205 colon = tested on: COLO 205 colon
786-0 renal = tested on: 786-0 renal
CAKI-1 renal = tested on: CAKI-1 renal
MCF7 breast = tested on: MCF7 breast
BT-549 breast = tested on: BT-549 breast
PC-3 prostate = tested on: PC-3 prostate
SNB-19 CNS = tested on: SNB-19 CNS
SK-MEL-28 melanoma = tested on: SK-MEL-28 melanoma
MDA-MB-435 melanoma = tested on: MDA-MB-435 melanoma
TK-10 renal = tested on: TK-10 renal
SW-620 colon = tested on: SW-620 colon
MOLT-4 leukemia = tested on: MOLT-4 leukemia
K-562 leukemia = tested on: K-562 leukemia
IGROV1 ovarian = tested on: IGROV1 ovarian
SF-268 CNS = tested on: SF-268 CNS

## CCC1=C[C@@H]2CN(C1)Cc1c([nH]c3ccccc13)[C@@](C(=O)OC)(c1cc3c(cc1OC)N(C)[C@H]1[C@@](O)(C(=O)OC)[C@H](OC(C)=O)[C@]4(CC)C=CCN5CC[C@]31[C@@H]54)C2
ACHN renal
  GI50: 2.77 µM
  TGI: 24.5 µM
HCT-15 colon
  GI50: 0.971 µM
  TGI: 8.15 µM
RPMI-8226 leukemia
  GI50: 0.0336 µM
  TGI: 0.0834 µM
UO-31 renal
  GI50: 4.51 µM
  TGI: 17.9 µM
KM12 colon
  GI50: 0.0508 µM
  TGI: 4.3 µM
DU-145 prostate
  GI50: 0.139 µM
  TGI: 1.74 µM
OVCAR-8 ovarian
  GI50: 0.237 µM
  TGI: 0.768 µM
HCT-116 colon
  GI50: 0.0739 µM
  TGI: 3.92 µM
MALME-3M melanoma
  GI50: 0.12 µM
  TGI: 18.7 µM
HL-60(TB) leukemia
  GI50: 0.0201 µM
  TGI: 0.0378 µM
A498 renal
  GI50: 0.203 µM
  TGI: 2.39 µM
UACC-257 melanoma
  GI50: 1.26 µM
  TGI: 15.4 µM
SN12C renal
  GI50: 0.21 µM
  TGI: 20.1 µM
SF-539 CNS
  GI50: 0.0765 µM
  TGI: 0.243 µM
LOX IMVI melanoma
  GI50: 0.171 µM
  TGI: 9.7 µM
SK-MEL-5 melanoma
  GI50: 0.022 µM
  TGI: 0.0494 µM
HS 578T breast
  GI50: 0.0633 µM
  TGI: 0.174 µM
NCI-H226 lung
  GI50: 0.681 µM
  TGI: 18.6 µM
NCI/ADR-RES ovarian
  GI50: 24.8 µM
  TGI: > 64.3 µM
HCC-2998 colon
  GI50: 0.0667 µM
  TGI: 0.286 µM
M14 melanoma
  GI50: 0.214 µM
  TGI: 13.4 µM
OVCAR-3 ovarian
  GI50: 0.0343 µM
  TGI: 0.171 µM
OVCAR-4 ovarian
  GI50: 2.67 µM
  TGI: > 62.6 µM
NCI-H522 lung
  GI50: 0.0209 µM
  TGI: 0.0462 µM
NCI-H23 lung
  GI50: 0.251 µM
  TGI: 0.881 µM
MDA-MB-231 breast
  GI50: 0.314 µM
  TGI: 14.2 µM
SK-MEL-2 melanoma
  GI50: 0.037 µM
  TGI: 0.216 µM
NCI-H322M lung
  GI50: 0.645 µM
  TGI: 17.8 µM
SF-295 CNS
  GI50: 0.0951 µM
  TGI: 0.239 µM
NCI-H460 NSCLC
  GI50: 0.0694 µM
  TGI: 0.22 µM
UACC-62 melanoma
  GI50: 0.0359 µM
  TGI: 0.901 µM
SK-OV-3 ovarian
  GI50: 0.113 µM
  TGI: 5.85 µM
A549 NSCLC
  GI50: 0.27 µM
  TGI: 11.8 µM
HOP-92 NSCLC
  GI50: 0.993 µM
  TGI: 11.9 µM
CCRF-CEM leukemia
  GI50: 0.0535 µM
  TGI: 0.104 µM
SNB-75 CNS
  GI50: 0.0488 µM
  TGI: 0.126 µM
EKVX NSCLC
  GI50: 0.65 µM
  TGI: 16.2 µM
HT29 colon
  GI50: 0.0585 µM
  TGI: 1.1 µM
U251 glioblastoma
  GI50: 0.0754 µM
  TGI: 1.81 µM
T-47D breast
  GI50: 10.6 µM
  TGI: 25.5 µM
MDA-MB-468 breast
  GI50: 0.0174 µM
  TGI: 0.0355 µM
OVCAR-5 ovarian
  GI50: 0.638 µM
  TGI: 19.7 µM
SR leukemia
  GI50: < 0.01 µM
  TGI: 0.0161 µM
HOP-62 NSCLC
  GI50: 0.212 µM
  TGI: 12.6 µM
COLO 205 colon
  GI50: 0.0516 µM
  TGI: 0.506 µM
786-0 renal
  GI50: 0.367 µM
  TGI: 6.05 µM
CAKI-1 renal
  GI50: 0.651 µM
  TGI: 8.98 µM
MCF7 breast
  GI50: 0.0651 µM
  TGI: 4.76 µM
BT-549 breast
  GI50: 0.0643 µM
  TGI: 0.71 µM
PC-3 prostate
  GI50: 0.21 µM
  TGI: 12.6 µM
SNB-19 CNS
  GI50: 0.18 µM
  TGI: 4.7 µM
SK-MEL-28 melanoma
  GI50: 1.52 µM
  TGI: 16.1 µM
MDA-MB-435 melanoma
  GI50: 0.0155 µM
  TGI: 0.0472 µM
TK-10 renal
  GI50: 1.11 µM
  TGI: 18.6 µM
SW-620 colon
  GI50: 0.155 µM
  TGI: 15.1 µM
MOLT-4 leukemia
  GI50: 0.0202 µM
  TGI: 0.0366 µM
K-562 leukemia
  GI50: 0.0421 µM
  TGI: 0.174 µM
IGROV1 ovarian
  GI50: 0.652 µM
  TGI: > 32.7 µM
SF-268 CNS
  GI50: 0.228 µM
  TGI: 12.9 µM
